One data set has as its target T1, human TrxR1 (Homo sapiens, UniProt Q16881).
T1 construct: purchased SeLENOZYME
T1 sequence (Q16881 1-499 isoform Q16881-5): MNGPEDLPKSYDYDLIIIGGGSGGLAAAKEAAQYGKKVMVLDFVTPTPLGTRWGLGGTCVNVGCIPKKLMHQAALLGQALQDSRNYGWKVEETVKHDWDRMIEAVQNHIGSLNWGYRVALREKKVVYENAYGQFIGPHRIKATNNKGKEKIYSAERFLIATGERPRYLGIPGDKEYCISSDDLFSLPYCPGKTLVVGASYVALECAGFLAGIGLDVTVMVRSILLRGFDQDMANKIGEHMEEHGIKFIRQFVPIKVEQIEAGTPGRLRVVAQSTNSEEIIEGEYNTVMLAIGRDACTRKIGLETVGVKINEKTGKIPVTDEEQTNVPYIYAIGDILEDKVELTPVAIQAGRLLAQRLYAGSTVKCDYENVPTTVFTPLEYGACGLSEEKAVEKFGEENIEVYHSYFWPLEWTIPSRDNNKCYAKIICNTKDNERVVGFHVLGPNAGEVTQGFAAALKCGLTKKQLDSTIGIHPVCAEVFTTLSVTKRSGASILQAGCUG
Nature of the data set: Isolated TrxR1 inhibition (DTNB assay). Type of data set: biochemical. The note with it: 75 min incubation at 37 °C. On the procedure: (§1) A number of gold and ruthenium complexes are known to inhibit members of the TrxR enzyme family.^[ [27] ^] […] We thus sought to evaluate the activity of our gold‐ and ruthenium‐containing complexes against TrxR1 (found in the cytoplasm) and TrxR2 (found in the mitochondria).
(§2) Human TrxR1 and TrxR2 were purchased from SeLENOZYME and inhibition studies were carried out by means of a DTNB assay in 96-well culture plates. Enzymes were diluted to achieve a concentration of 3.58 U mL^−1. The compounds subject to testing were freshly dissolved in DMF. 10 μL aliquots of the enzyme solution and 10 μL of solutions of the compounds at graded concentrations or 10 μL of 1% DMF in PBS (positive control) were added and incubated for 75 min at 37 °C. A second control consisted of 10 µL of the highest concentration of each compound with 10 µL of PBS. After the chosen incubation time, 10 µL of NADPH (10 mM), 160 µL TE buffer (50 mM Tris-HCl, 2 mM EDTA, pH 7.5) and 10 µL ethanolic DTNB (50 mM) were added producing a total reaction volume of 200 µL. After proper mixing, the formation of 5-TNB was monitored with a microplate reader at 405 nm. This was done 10 times at 30 second intervals over the course of about 5 min. A TNB standard curve (0-2 mM in 200 µL TE buffer) was used to calculate the exact DTNB consumed in the reaction with linear region slopes being calculated by plotting A405 vs time (min). The IC50 values representing the concentration of compound serving to decrease the enzymatic activity of the untreated control by 50% were calculated and are given as the mean and standard error of three repeated experiments. The combination index (CI) was calculated using the Chou-Talalay method^6

Data set [1] relates to A2780cis (ovarian carcinoma resistant to cisplatin). The data set can be described thus: Antiproliferative MTT assay, A2780cis. The note with it: A2780 CisR, 72 h incubation. It is filed as cell-based, human. As for the experimental part: (§3) We examined the antiproliferative activity of the heterometallic complexes 3–5 and compared them against their monometallic constituent components, as well as a physical 1:1:1 mixture of 1 + Oxa + 2 after 72 h incubation across a panel of five cancer cell lines: A2780 (ovarian carcinoma), A2780cis (ovarian carcinoma resistant to cisplatin, also referred to as A2780CP), CT26 WT (murine colorectal carcinoma), A375 (melanoma), and PC9 (non‐small cell lung cancer).
(§4) A375 melanoma cells (5000 cells/well), PC9 […] cells (5000 cells/well), CT26 WT murine colon carcinoma cells (5000 cells/well), A2780 ovarian carcinoma cells (5000 cells/well), and A2780cis cisplatin-resistant ovarian carcinoma cells (7000 cells/well), were seeded in flat-bottom 96-well plates in their respective cell culture media (100 µL) and incubated at 37°C in a 5% CO2 environment for 24 h. After that, the media were replaced with the fresh media. Stock solutions of the compounds in DMSO or in cell culture medium (for Oxa) were freshly prepared and diluted with the respective cell culture medium to graded concentrations (final concentration of DMSOmax: 0.5% v/v). After 72 h of exposure, the media were removed and 100 µL of 0.5 mg/mL 3-(4,5-dimethylthiazol-2-yl)-2,5-diphenyl tetrazolium bromide (MTT) in DMEM or RPMI were added and the plate in question further incubated for an additional 1 h. The media containing the MTT solution was removed and the resulting formazan crystals were dissolved in 100 µL DMSO. The absorbance of the solution in each well was read at 570 nm using a BioTek Cytation3 plate reader. The IC50 value, which is the drug concentration needed for 50% reduction in survival, based on the survival curve, was calculated by fitting nonlinear curves in GraphPad Prism 5 Ver 5.03, using a normalized response variable slope model constructed by plotting cell viability (%) vs log of the concentration of the complex in question in nM. The results are presented as the mean values of three independent experiments.
For orientation: Formazan colour is commonly taken as a measure of viable cells.

The test system of a further data set is A375 (melanoma). The data set can be described thus: Antiproliferative MTT assay, A375. Type of data set: cell-based, human. The note with it: A375, 72 h incubation. As for the experimental part: as §3, §4
The subject of data set [2] is A2780 (ovarian carcinoma). The data set can be described thus: Antiproliferative MTT assay, A2780. The note with it: A2780, 72 h incubation. It is filed as cell-based, human. As for the experimental part:
as §3, §4

The target of a further data set is T2, human TrxR2 (Homo sapiens, UniProt Q9NNW7).
T2 construct: purchased SeLENOZYME
T2 sequence (Q9NNW7 37-524): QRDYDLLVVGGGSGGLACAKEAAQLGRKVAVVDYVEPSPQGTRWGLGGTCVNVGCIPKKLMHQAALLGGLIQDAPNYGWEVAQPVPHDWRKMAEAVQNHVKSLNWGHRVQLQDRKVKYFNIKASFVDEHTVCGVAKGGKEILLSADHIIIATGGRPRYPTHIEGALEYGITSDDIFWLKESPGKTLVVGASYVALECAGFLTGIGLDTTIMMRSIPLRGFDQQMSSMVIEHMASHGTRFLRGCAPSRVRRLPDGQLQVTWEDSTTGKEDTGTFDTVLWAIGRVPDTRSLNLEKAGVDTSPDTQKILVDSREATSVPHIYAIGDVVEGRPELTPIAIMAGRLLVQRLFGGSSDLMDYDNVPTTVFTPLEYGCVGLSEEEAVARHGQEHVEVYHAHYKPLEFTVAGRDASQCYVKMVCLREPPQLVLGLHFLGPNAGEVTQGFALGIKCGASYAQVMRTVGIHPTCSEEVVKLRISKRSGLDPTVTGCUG
Nature of the data set: Isolated TrxR2 inhibition (DTNB assay). It is filed as biochemical. The note with it: 75 min incubation at 37 °C. On the procedure: as §1, §2

The test system of another data set is HCT-116 cells. The data set can be described thus: Total cellular metal accumulation (ICP-MS). Type of data set: cell-based. The note with it: 1 µM, 24 h. On the procedure: It is important to note the TrxR assay was performed using isolated enzymes. […] Recognizing this, we incubated HCT‐116 cells with 1 µM of complexes 1–5 for 24 h and quantified the total metal content via ICP‐MS (Figure 4a).
1 x 10^6 HCT-116 cells were seeded in a 6-well plate (2 mL RPMI-1640). After incubating overnight, the medium was replaced, and the cells were treated with the test compounds (1 µM) for 24 h. The resulting cell monolayers were washed twice with cold PBS, harvested and counted in PBS for a total volume of 400 µL. Samples were divided, and each was mineralized with 1 mL aqua regia and evaporated to dryness on a 110 °C hot plate overnight. Later, 1 mL of 2% HCl + 1% thiourea was added to each vial. Samples were quantified via ICP-MS. Metal accumulation levels were determined using the relative isotopic prevalence of ^195Pt, ^101Ru, and ^197Au.

For data set [3], the system named is CT26 WT (murine colorectal carcinoma). The data set can be described thus: Antiproliferative MTT assay, CT26 WT. It is filed as cell-based. The note with it: CT 26 WT, 72 h incubation. On the procedure:
as §3, §4

The test system of data set [4] is reducing enzymes, such as lipoamide dehydrogenase, glutathione reductase, and TrxR. Type of data set: cell-based. On the procedure:
We thus explored several targets in addition to cellular and organelle uptake after 24 h incubation. A lipoate‐to‐dihydrolipoate reduction assay in HCT‐116 cells was used to evaluate the ability of the complexes to inhibit reducing enzymes, such as lipoamide dehydrogenase, glutathione reductase, and TrxR.^[ [25] ^]
In short, HCT-116 cells were harvested and seeded at a density of 10,000 cells/well in 96-well culture plates. Following an overnight incubation at 37°C under a 5% CO2 atmosphere, the medium was replaced, and the cells incubated with 1 µM of each complex for additional 24 hr. Thereafter, the media were removed from each well, which were then washed with 200 μL of HBSS solution. Finally, 100 µL of 5 mM lipoate and 1 mM of DTNB solutions were added to each well. The absorbance of each well at 405 nm was recorded immediately and once every 20 min for one hour using a microplate reader. Plates were covered with aluminum foil between readings.

Data set [5] concerns PC9 (non-small cell lung cancer). The data set can be described thus: Antiproliferative MTT assay, PC9. Type of data set: cell-based, human. The note with it: PC9, 72 h incubation. As for the experimental part: as §3, §4
The subject of the next data set is CT26 cells. Nature of the data set: Extracellular HMGB1 release (ELISA). Type of data set: cell-based, murine. The note with it: IC50 concentrations, 24 h. On the procedure:
Oxa alone produced a modest effect, consistent with its known ICD profile.^[ [5] ^]
1 x 10^6 CT-26 cells were seeded in a 6-well plate (2 mL RPMI-1640). […] The HMGB1 release of the supernatant was quantified using HMGB1 Detection Kit ELISA (Chondrex, Catalog 6010) according to the manufacturer’s instructions.

Like-named read-outs stand apart in the source and are kept apart here.

The term IC50 denotes the concentration that gives 50% inhibition. Turning to `Cc1ccc(C(C)C)cc1.O=C(O)c1ccc(NC(=S)c2ccccn2)cc1.[Cl-].[Cl][Ru+]` [Complex 1, [Chlorido(η6-p-cymene)(N-(4-benzoic acid)-2-pyridinecarbothioamide)ruthenium(II)] chloride], the IC50 is 3.44 ± 0.32 µM at human TrxR1; greater than 40 µM in data set [1]; greater than 40 µM in the data set on A375 (melanoma); 15.7 ± 4.3 µM in [2]; 4.36 ± 0.41 µM at human TrxR2; greater than 40 µM in data set [3]. Also, the IC50 in data set [5] is greater than 40 µM. Moreover, the “total cellular metal uptake” value in the data set with HCT-116 cells is recorded as “low accumulation of ruthenium”. Besides, the “dihydrolipoate production relative to control” value in [4] is “activity similar to untreated cells (control)”.
As for `O=C1[O][Pt]2([NH][C@@H]3CCCC[C@H]3[NH]2)[O]C1=O` [Oxa, oxaliplatin, reference compound], the IC50 on human TrxR1 was found to be 25.6 ± 3.7 µM; in data set [1], 1.01 ± 0.22 µM; in the data set on A375 (melanoma), 3.16 ± 0.49 µM; in data set [2], 0.29 ± 0.03 µM; on human TrxR2 it was 28.2 ± 2.9 µM; in [3] it was 20 ± 1.4 µM. The IC50 in data set [5] is 8.2 ± 1 µM. For the same molecule, in the data set on CT26 cells, the “Extracellular HMGB1 release” value is recorded as “modest effect”. In data set [4] (HCT-116 cells, 1 µM, 24 h), the “dihydrolipoate production relative to control” value is given as “activity similar to untreated cells (control)”.
Consider `CC(=O)OC[C@H]1O[C@@H]([S-])[C@H](OC(C)=O)[C@@H](OC(C)=O)[C@@H]1OC(C)=O.CCP(CC)CC.[Au+]` [Auranofin, reference compound], for which the IC50 at human TrxR1 was 0.06 ± 0.02 µM; at human TrxR2, 0.22 ± 0.04 µM. Besides, the “dihydrolipoate production relative to control” value in [4] (HCT-116 cells, 1 µM, 24 h) is reported as 55%.
On to `Cc1cc(C)c(-n2ccn(CCOC(=O)NCCN)[c]2=[Au-3]=[c]2n(-c3c(C(C)C)cccc3C(C)C)c3c(n2-c2c(C(C)C)cccc2C(C)C)C(=O)c2ccccc2C3=O)c(C)c1.O=C([O-])C(F)(F)F` [Complex 2, (1-(2-(((2-Aminoethyl)carbamoyl)oxy)ethyl)-3-mesityl-1,3-dihydro-2H-2λ3-imidazol-2-yl)(1,3-bis(2,6-diisopropylphenyl)-4,9-dioxo-1,3,4,9-tetrahydro-2H-2λ3-naphtho[2,3-d]imidazol-2-yl)gold (I) TFA salt], for which the IC50 on human TrxR1 came to 1.62 ± 0.13 µM; in [1] it was 0.56 ± 0.09 µM; with A375 (melanoma), 2.48 ± 0.35 µM; in data set [2], 0.34 ± 0.08 µM; at human TrxR2, 1.27 ± 0.21 µM; in data set [3], 14.9 ± 0.4 µM. The molecule further displayed an IC50 in [5] of 0.49 ± 0.13 µM. Further, the “dihydrolipoate production relative to control” value in [4] (HCT-116 cells, 1 µM, 24 h) worked out at 72%.
